Values of other authors as cited in patent CN110302150A, “甲硫氨酸维生素b1注射液及其的制备方法” (Chengdu Cacumen Et Folium Clerodendri Mandarinori …, priority 2019, dated 2019).
Where two headings read alike, the source gives them in different places.

| Compound | stability (during production and storage) | stability (high temperature and pH>4) |
| --- | --- | --- |
| CSCCC(N)C(=O)O (stereo not drawn) [甲硫氨酸] | 不稳定,较易降解 |  |
| Cc1ncc(C[n+]2csc(CCO)c2C)c(N)n1 [维生素B1] | 不稳定,较易降解 | 不稳定 |
